One experiment relates to ceramide neutralization. The experiment is described as follows: Decitabine treatment of FLT3^ITD transgenic mice, gene expression by qRT-PCR. The format is in vivo. Here is the method: Decitabine treatment downregulates ceramide neutralization in FLT3^ITD transgenic mice while augmenting gdf1 expression. 8-12 week old mice harboring an internal tandem duplication in the Flt3 gene were treated with the hypomethylating agent, decitabine, at 0.2 mg/kg, 3 times weekly, for 6 weeks. Results were generated using qRT-PCR and normalized to housekeeping genes (Actb, RpII, Tbp). […] Treatment with decitabine reversed ugcg expression and led to downregulation of cers1 as compared to control mice. […] As expected, other related genes are also affected by decitabine treatment.
Hypomethylating Treatment Reverses the Effect of Leukemogenic Transgenes on Ceramide Detoxification. Myeloid hematological malignancies such as AML and myelodysplastic syndrome (MDS) are frequently treated with hypomethylating agents such as decitabine. In particular, treatment and management of MDS commonly utilizes these strategies to attempt to prevent the transformation of this bone marrow failure-like condition to AML. In this experiment, we utilized aged FLT3^ITD transgenic mice treated with/without decitabine and monitored the changes to the expression of genes in the bone marrow that regulate the production of bioactive sphingolipids.

Experiment [1] relates to AML cell lines (HL-60, Kasumi-1 and Kasumi-3). Kind of experiment: Gdf1 treatment of AML cell lines, gene expression by qRT-PCR. The format is cell-based. Particulars: 50 ng/mL, 24 hours; HL-60, Kasumi-1, Kasumi-3; compared to untreated counterparts. Here is the method:
Gdf1 treatment of AML cell lines triggers downregulation of ceramide neutralization pathways. AML cell lines (HL-60, Kasumi-1 and Kasumi-3), were treated with recombinant human gdf1 at a concentration of 50 ng/mL for 24 hours. Results were obtained via qRT-PCR and compared to housekeeping genes (Actb, RpII).
(In general: In qPCR the cycle at which signal appears reflects the starting amount.)

Experiment [2] has as its system hematopoietic progenitor cells. Kind of experiment: Gdf1 treatment of bone marrow, flow cytometry immunophenotyping of LT-HSC and MPP. The class given is cell-based. The following applies: 50 ng/mL, 24 hours; bone marrow of hybrid mice. Here is the method: Gdf1 treatment promotes quiescence exit of hematopoietic progenitor cells. Bone marrow of hybrid mice was treated with human recombinant Gdf1 at a concentration of 50 ng/mL for 24 hours. Flow cytometry was used in immunophenotyping cells into subpopulations of long-term hematopoietic stem cells (LT-HSC) and multipotent progenitor cells (MPP). LT-HSCs were defined as Lin−, C-kit+, Sca-1+, CD150+, CD48−. MPPs were defined as Lin−, C-kit+, Sca-1+, CD150−, CD48−. Quiescent cells were defined as CD34+.

As to `Nc1ncn([C@H]2C[C@H](O)[C@@H](CO)O2)c(=O)n1` [decitabine, 5-aza-2′-deoxycytidine], the gdf1 expression entry with ceramide neutralization (FLT3^ITD mice, decitabine 0.2 mg/kg, 3 times weekly, 6 weeks) was “upregulated”. For the same molecule, the cers1 expression entry in the experiment on ceramide neutralization (FLT3^ITD mice, decitabine 0.2 mg/kg, 3 times weekly, 6 weeks, compared to control mice) was “downregulation”. Besides, the ugcg expression entry in the experiment on ceramide neutralization (FLT3^ITD mice, decitabine 0.2 mg/kg, 3 times weekly, 6 weeks, qRT-PCR normalized to Actb, RpII, Tbp) is listed as “reversed”. Also, in the experiment with ceramide neutralization (bone marrow of aged FLT3^ITD transgenic mice treated with/without decitabine), the “relationship between gdf1 and either ugcg or sgms1 expression” value was “inverse relationship”.

B1: Gdf1: Recombinant human Growth Differentiation Factor 1, a BMP family member and TGF-beta signaling pathway intermediate (protein, listed as Homo sapiens)
chain: MPPPQQGPCGHHLLLLLALLLPSLPLTRAPVPPGPAAALLQALGLRDEPQGAPRLRPVPPVMWRLFRRRDPQETRSGSRRTSPGVTLQPCHVEELGVAGNIVRHIPDRGAPTRASEPASAAGHCPEWTVVFDLSAVEPAERPSRARLELRFAAAAAAAPEGGWELSVAQAGQGAGADPGPVLLRQLVPALGPPVRAELLGAAWARNASWPRSLRLALALRPRAPAACARLAEASLLLVTLDPRLCHPLARPRRDAEPVLGGGPGGACRARRLYVSFREVGWHRWVIAPRGFLANYCQGQCALPVALSGSGGPPALNHAVLRALMHAAAPGAADLPCCVPARLSPISVLFFDNSDNVVLRQYEDMVVDECGCR
In the case of B1, in experiment [1], the cers1 expression result is “downregulated” and the ugcg expression result is reported as “downregulated”. Besides, in experiment [2], the “cells bearing the CD34 marker (quiescent cells) in LT-HSC and MPP populations” value is “decrease”; the “population of MPPs in the overall pool of analyzed cells” value is reported as “increase”.

The values are drawn from US11225512B2, “Compositions and methods for ceramide-elevating therapeutic strategies” (University of New Hampshire, priority 2017, dated 2022).
